Measurements from patent US8143293B2, “Kinase inhibitors useful for the treatment of myleoprolific diseases and other proliferative diseases” (Deciphera Pharmaceuticals, LLC, priority 2007, dated 2012).
pIC50: −log10 of the molar value.

Assays:
[1] = target: T1, BaF3 cells transfected with T315I p210 BCR-Abl (Homo sapiens, UniProt P00519, T315I, cells depend on it); experiment: Ba/F3 p210 T315I whole cell proliferation assay; type: cell-based; conditions: 72 hours, Cell Titer Blue; read-out: Whole Cell Antiproliferation IC50, Ba/F3 p210 T315I whole cell proliferation assay
T1 construct: fused on or other part: P11274 (Breakpoint cluster region protein)

[2] = target: T2, T315I Abl kinase (SEQ ID NO:2) (Homo sapiens, UniProt P00519, T315I); experiment: T315I Abl kinase (SEQ ID NO:2) assay, pyruvate kinase/lactate dehydrogenase coupled; conditions: 1 h preincubation, ATP 500 μM; read-out: Biochemical IC50, Abl T315I Enzyme Assay
T2 construct: purchased deCode Genetics
T2 sequence (P00519 with tags, fused parts or gaps T315I): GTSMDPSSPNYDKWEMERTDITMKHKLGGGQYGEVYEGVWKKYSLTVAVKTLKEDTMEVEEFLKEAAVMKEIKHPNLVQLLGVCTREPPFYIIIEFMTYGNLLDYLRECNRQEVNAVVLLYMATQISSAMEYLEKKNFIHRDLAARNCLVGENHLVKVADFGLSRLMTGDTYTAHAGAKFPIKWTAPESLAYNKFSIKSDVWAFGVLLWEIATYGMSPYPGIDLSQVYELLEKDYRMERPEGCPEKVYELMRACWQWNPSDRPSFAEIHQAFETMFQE

[3] = target: T3, c-Kit kinase (SEQ ID NO:9) (Homo sapiens, UniProt P10721); experiment: C-Kit kinase (SEQ ID NO:9) assay, pyruvate kinase/lactate dehydrogenase coupled; conditions: <2 min preincubation, ATP 200 μM; read-out: Biochemical IC50, c-Kit Enzyme Assay
T3 construct: contained c-Kit (cKIT residues T544-V976, from ProQinase, 5.4 nM); purchased ProQinase
Protocol: C-Kit Kinase (SEQ ID NO:9) Assay
Activity of c-Kit kinase (SEQ ID NO:9) was determined by following the production of ADP from the kinase reaction through coupling with the pyruvate kinase/lactate dehydrogenase system (e.g., Schindler, et al. Science (2000) 289, 1938-1942). In this assay, the oxidation of NADH (thus the decrease at A340 nm) was continuously monitored spectrophometrically. The reaction mixture (100 μl) contained c-Kit (cKIT residues T544-V976, from ProQinase, 5.4 nM), polyE4Y (1 mg/ml), MgCl2 (10 mM), pyruvate kinase (4 units), lactate dehydrogenase (0.7 units), phosphoenol pyruvate (1 mM), and NADH (0.28 mM) in 90 mM Tris buffer containing 0.2% octyl-glucoside and 1% DMSO, pH 7.5. Test compounds were incubated with […] (SEQ ID NO:9) and other reaction reagents at 22° C. for <2 min before ATP (200 μM) was added to start the reaction. The absorption at 340 nm was monitored continuously for 0.5 hours at 30° C. on Polarstar Optima plate reader (BMG). The reaction rate was calculated using the 0 to 0.5 h time frame. Percent inhibition was obtained by comparison of reaction rate with that of a control (i.e. with no test compound). IC50 values were calculated from a series of percent inhibition values determined at a range of inhibitor concentrations using software routines as implemented in the GraphPad Prism software package.

[4] = target: T4, BaF3 cells transfected with wild type p210 BCR-Abl (Homo sapiens, UniProt P00519); experiment: Ba/F3 p210 whole cell proliferation assay; type: cell-based; conditions: 72 hours, Cell Titer Blue; read-out: Whole Cell Antiproliferation IC50, Ba/F3 p210 whole cell proliferation assay
T4 construct: fused on or other part: P11274 (Breakpoint cluster region protein)

T3 sequence (P10721 with tags, fused parts or gaps): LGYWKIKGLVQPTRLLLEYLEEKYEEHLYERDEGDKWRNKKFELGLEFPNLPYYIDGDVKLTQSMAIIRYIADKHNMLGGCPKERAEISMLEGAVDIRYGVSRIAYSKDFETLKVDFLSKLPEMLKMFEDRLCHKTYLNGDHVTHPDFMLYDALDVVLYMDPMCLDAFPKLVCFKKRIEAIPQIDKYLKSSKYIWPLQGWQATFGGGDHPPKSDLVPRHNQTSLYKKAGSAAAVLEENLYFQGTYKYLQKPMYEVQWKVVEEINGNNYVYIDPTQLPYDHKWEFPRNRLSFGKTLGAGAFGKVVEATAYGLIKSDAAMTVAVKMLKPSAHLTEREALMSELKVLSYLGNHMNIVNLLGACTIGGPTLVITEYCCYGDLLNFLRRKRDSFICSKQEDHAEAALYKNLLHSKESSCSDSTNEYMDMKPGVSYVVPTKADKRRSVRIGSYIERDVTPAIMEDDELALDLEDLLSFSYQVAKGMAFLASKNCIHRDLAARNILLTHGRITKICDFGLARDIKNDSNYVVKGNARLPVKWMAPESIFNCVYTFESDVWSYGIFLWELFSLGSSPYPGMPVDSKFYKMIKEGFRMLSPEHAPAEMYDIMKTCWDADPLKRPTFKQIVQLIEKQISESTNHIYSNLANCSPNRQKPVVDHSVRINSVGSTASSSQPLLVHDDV

- GI50 [1]: < 1000 nM
- pIC50 [2]: > 5.00
- pIC50 [3]: > 7.00
- GI50 [4]: < 100 nM
Structure (SMILES): Cc1c(NC(=O)Nc2ccc(Oc3ccnc(-c4cnn(C)c4)c3)cc2F)cnn1C(C)(C)C [Example 10, 1-(1-tert-butyl-5-methyl-1H-pyrazol-4-yl)-3-(2-fluoro-4-(2-(1-methyl-1H-pyrazol-4-yl)pyridin-4-yloxy)phenyl)urea]
